According to US10053458B2, “Pyrimidine-2,4-diamine derivative and anticancer pharmaceutical composition comprising same as effective ingredient” (KOREA RESEARCH INSTITUTE OF CHEMICAL TECHNOLOGY, priority 2014, dated 2018):

Assays:
BaF3 EML4-ALK WT cells = experiment: Cytotoxicity on BaF3 cell transfected with EML4-ALK WT (WST-1); settings: Ba/F3 EML4-ALK, 72 h, read-out: BaF3 EML4-ALK WT, IC50 of the cytotoxicity
H2228 = experiment: Cancer cell proliferation inhibition (SRB/MTS), H2228; settings: Homo sapiens, NCI-H2228, 72 h, read-out: H2228 GI50
Method: (§1) Cancer cell lines used in the experiments were all human-derived cancer cell lines, specifically H2228 and H3122, which are non-small cell lung cancer cell lines.
(§2) The cancer cell proliferation inhibition was measured using the MTS assay as follows. […] Each culture medium was placed in an incubator for 4 hours, taken out and left at room temperature for 10 minutes.

H3122 = experiment: Cancer cell proliferation inhibition (SRB/MTS), H3122; settings: Homo sapiens, NCI-H3122, 72 h, read-out: H3122 GI50
Method: as §1, §2

GI50 (H2228) [nM] | GI50 (H3122) [nM] | Compound | IC50 (BaF3 EML4-ALK WT cells) [nM]
< 50 | < 50 | CCC1(CC)NCCc2cc(Nc3ncc(Cl)c(Nc4ccccc4S(=O)(=O)C(C)C)n3)c(OC)cc21 [Example 74, 5-chloro-N4-(2-(isopropylsulfonyl)phenyl)-N2-(1,1-diethyl-7-methoxy-1,2,3,4-tetrahydroisoquinolin-6-yl)pyrimidine-2,4-diamine] | < 50
< 50 | < 50 | COc1cc2c(cc1Nc1ncc(Cl)c(Nc3ccccc3S(=O)(=O)C(C)C)n1)CNCC2(C)C [Example 75, 5-chloro-N4-(2-(isopropylsulfonyl)phenyl)-N2-(6-methoxy-4,4-dimethyl-1,2,3,4-tetrahydroisoquinolin-7-yl)pyrimidine-2,4-diamine] | < 50
< 50 | < 50 | COc1cc2c(cc1Nc1ncc(Cl)c(Nc3ccccc3S(=O)(=O)C(C)C)n1)CCNC2C(=O)O (stereo not drawn) [Example 76, 6-(5-chloro-4-(2-(isopropylsulfonyl)phenylamino)pyrimidin-2-yl)amino-7-methoxy-1,2,3,4-dihydroisoquinoline-1-carboxylic acid] | < 50
< 50 | < 50 | CCN1CCc2cc(Nc3ncc(Cl)c(Nc4ccccc4S(=O)(=O)C(C)C)n3)c(OC)cc2C1(C)C [Example 77, 5-chloro-N4-(2-(isopropylsulfonyl)phenyl)-N2-(2-ethyl-7-methoxy-1,1-dimethyl-1,2,3,4-tetrahydroisoquinolin-6-yl)pyrimidine-2,4-diamine] | < 50
< 50 | < 50 | COc1cc2c(cc1Nc1ncc(Cl)c(Nc3ccccc3S(=O)(=O)C(C)C)n1)CCN(C(=O)CO)C2(C)C [Example 78, 1-6-(5-chloro-4-(2-(isopropylsulfonyl)phenylamino)pyrimidin-2-yl)amino-7-methoxy-1,1-dimethyl-3,4-dihydroisoquinolin-2(1H)-yl-2-hydroxyethane-1-one] | < 50
< 50 | < 50 | CCN1CCc2cc(Nc3ncc(Cl)c(Nc4ccccc4S(=O)(=O)C(C)C)n3)c(OC(C)C)cc2C1(C)C [Example 79, 5-chloro-N4-(2-(isopropylsulfonyl)phenyl)-N2-(2-ethyl-7-isopropoxy-1,1-dimethyl-1,2,3,4-tetrahydroisoquinolin-6-yl)pyrimidine-2,4-diamine] | < 50
< 50 | < 50 | CC(C)Oc1cc2c(cc1Nc1ncc(Cl)c(Nc3ccccc3S(=O)(=O)C(C)C)n1)CNCC2(C)C [Example 80, 5-chloro-N4-(2-(isopropylsulfonyl)phenyl)-N2-(6-isopropoxy-4,4-dimethyl-1,2,3,4-tetrahydroisoquinolin-7-yl)pyrimidine-2,4-diamine] | < 50
< 50 | < 50 | CCOc1cc2c(cc1Nc1ncc(Cl)c(Nc3ccccc3S(=O)(=O)C(C)C)n1)CN(CC)CC2(C)C [Example 81, 5-chloro-N4-(2-(isopropylsulfonyl)phenyl)-N2-(6-ethoxy-2-ethyl-4,4-dimethyl-1,2,3,4-tetrahydroisoquinolin-7-yl)pyrimidine-2,4-diamine] | < 50
< 50 | < 50 | CCN1Cc2cc(Nc3ncc(Cl)c(Nc4ccccc4S(=O)(=O)C(C)C)n3)c(OC(C)C)cc2C(C)(C)C1 [Example 82, 5-chloro-N4-(2-(isopropylsulfonyl)phenyl)-N2-(2-ethyl-6-isopropoxy-4,4-dimethyl-1,2,3,4-tetrahydroisoquinolin-7-yl)pyrimidine-2,4-diamine] | < 50
< 50 | < 50 | COc1cc2c(cc1Nc1ncc(Cl)c(Nc3ccccc3S(=O)(=O)C(C)C)n1)CNCC21CCCC1 [Example 83, 5-chloro-N4-(2-(isopropylsulfonyl)phenyl)-N2-(6-methoxy-2,3-dihydro-1H-spiro(cyclopentane-1,4-isoquinolin)-7-yl)pyrimidine-2,4-diamine] | < 50
< 50 | < 50 | COc1cc2c(cc1Nc1ncc(Cl)c(Nc3ccccc3S(=O)(=O)C(C)C)n1)C1CNCC(=O)N1CC2(C)C (stereo not drawn) [Example 85] | < 50
< 50 | < 50 | COc1cc2c(cc1Nc1ncc(Cl)c(Nc3ccccc3S(=O)(=O)C(C)C)n1)C1CNCCN1CC2(C)C (stereo not drawn) [Example 86, 5-chloro-N4-(2-(isopropylsulfonyl)phenyl)-N2-(9-methoxy-7,7-dimethyl-1,3,4,6,7,11b-hexahydro-2H-pyrazino[2,1-a]isoquinolin-10-yl)pyrimidine-2,4-diamine] | < 50
< 50 | < 50 | COc1cc2c(c(Br)c1Nc1ncc(Cl)c(Nc3ccccc3S(=O)(=O)C(C)C)n1)CCNC2(C)C [Example 87, 5-chloro-N4-(2-(isopropylsulfonyl)phenyl)-N2-(5-bromo-7-methoxy-1,1-dimethyl-1,2,3,4-tetrahydroisoquinolin-6-yl)pyrimidine-2,4-diamine] | < 50
< 50 | < 50 | COc1cc2c(c(Cl)c1Nc1ncc(Cl)c(Nc3ccccc3S(=O)(=O)C(C)C)n1)CCNC2(C)C [Example 88, 5-chloro-N4-(2-(isopropylsulfonyl)phenyl)-N2-(5-chloro-7-methoxy-1,1-dimethyl-1,2,3,4-tetrahydroisoquinolin-6-yl)pyrimidine-2,4-diamine] | < 50
< 50 | < 50 | COc1c(Nc2ncc(Cl)c(Nc3ccccc3S(=O)(=O)C(C)C)n2)cc2c(c1Br)C(C)(C)NCC2 [Example 89, 5-chloro-N4-(2-(isopropylsulfonyl)phenyl)-N2-(8-bromo-7-methoxy-1,1-dimethyl-1,2,3,4-tetrahydroisoquinolin-6-yl)pyrimidine-2,4-diamine] | < 50
< 50 | < 50 | COc1c(Nc2ncc(Cl)c(Nc3ccccc3S(=O)(=O)C(C)C)n2)cc2c(c1Cl)C(C)(C)NCC2 [Example 90, 5-chloro-N4-(2-(isopropylsulfonyl)phenyl)-N2-(8-chloro-7-methoxy-1,1-dimethyl-1,2,3,4-tetrahydroisoquinolin-6-yl)pyrimidine-2,4-diamine] | < 50
< 50 | < 50 | COc1cc2c(cc1Nc1ncc(Cl)c(Nc3ccccc3S(=O)(=O)C(C)C)n1)CN(C)CC2(C)C [Example 91, 5-chloro-N4-(2-(isopropylsulfonyl)phenyl)-N2-(6-methoxy-2,4,4-trimethyl-1,2,3,4-tetrahydroisoquinolin-7-yl)pyrimidine-2,4-diamine] | < 50
< 50 | < 50 | CCN1Cc2cc(Nc3ncc(Cl)c(Nc4ccccc4S(=O)(=O)C(C)C)n3)c(OC)cc2C(C)(C)C1 [Example 92, 5-chloro-N4-(2-(isopropylsulfonyl)phenyl)-N2-(2-ethyl-6-methoxy-4,4-trimethyl-1,2,3,4-tetrahydroisoquinolin-7-yl)pyrimidine-2,4-diamine] | < 50
< 50 | < 50 | COc1cc2c(cc1Nc1ncc(Cl)c(Nc3ccccc3S(=O)(=O)C(C)C)n1)CN(C(=O)CN(C)C)CC2(C)C [Example 94] | < 50
< 50 | < 50 | COc1cc2c(cc1Nc1ncc(Cl)c(Nc3ccccc3S(=O)(=O)C(C)C)n1)CN(C(=O)CO)CC2(C)C [Example 95] | < 50
< 50 | < 50 | COc1cc2c(cc1Nc1ncc(Cl)c(Nc3ccccc3S(=O)(=O)C(C)C)n1)CNCC21CC1 [Example 96, 5-chloro-N4-(2-(isopropylsulfonyl)phenyl)-N2-(6-methoxy-2,3-dihydro-1H-spiro(cyclopropane-1,4-isoquinolin)-7-yl)pyrimidine-2,4-diamine] | < 50
< 50 | < 50 | CCOc1cc2c(cc1Nc1ncc(Cl)c(Nc3ccccc3S(=O)(=O)C(C)C)n1)CCNC2(C)C [Example 99, 5-chloro-N4-(2-(isopropylsulfonyl)phenyl)-N2-(7-ethoxy-1,1-dimethyl-1,2,3,4-tetrahydroisoquinolin-6-yl)pyrimidine-2,4-diamine] | < 50
< 50 | < 50 | CC(C)S(=O)(=O)c1ccccc1Nc1nc(Nc2cc3c(cc2OC(F)F)C(C)(C)NCC3)ncc1Cl [Example 100, 5-chloro-N4-(2-(isopropylsulfonyl)phenyl)-N2-(7-difluoromethoxy-1,1-dimethyl-1,2,3,4-tetrahydroisoquinolin-6-yl)pyrimidine-2,4-diamine] | < 50
< 50 | < 50 | CCCC1NCCc2cc(Nc3ncc(Cl)c(Nc4ccccc4S(=O)(=O)C(C)C)n3)c(OC)cc21 (stereo not drawn) [Example 102, 5-chloro-N4-(2-(isopropylsulfonyl)phenyl)-N2-(7-methoxy-1-propyl-1,2,3,4-tetrahydroisoquinolin-6-yl)pyrimidine-2,4-diamine] | < 50
< 50 | < 50 | COc1cc2c(cc1Nc1ncc(Cl)c(Nc3ccccc3S(=O)(=O)C(C)C)n1)CCCNC2(C)C [Example 104, 5-chloro-N4-(2-(isopropylsulfonyl)phenyl)-N2-(8-methoxy-1,1-dimethyl-2,3,4,5-tetrahydro-1H-benzo[c]azepin-7-yl)pyrimidine-2,4-diamine] | < 50
< 50 | < 50 | COc1cc2c(cc1Nc1ncc(Cl)c(Nc3ccccc3S(=O)(=O)C(C)C)n1)CCNCC2(C)C [Example 105, 5-chloro-N4-(2-(isopropylsulfonyl)phenyl)-N2-(8-methoxy-1,1-dimethyl-2,3,4,5-tetrahydro-1H-benzo[d]azepin-7-yl)pyrimidine-2,4-diamine] | < 50
